SMILES strings stand for the structures.

In this assay the target is T1, Thioredoxin domain-containing protein 12 (TXNDC12) (Homo sapiens, UniProt O95881).
T1 construct: endogenous in cells; host or cells: MCF7
Nature of the assay: SILAC competitive profiling with probe 24c in MCF7 lysates: TXNDC12. It counts as binding. To be noted: 1 h, then 10 µM 24c. The source says: In our efforts to determine the direct molecular targets of deoxyelephantopin we first performed a gel-based competitive in situ proteomic profiling assay[41] […] While the greater conformational flexibility of probe 24c could potentially lead to more promiscuous target engagement relatively to deoxyelephantopin, it was favoured based on the fact that an alkyne moiety appended to the rigid scaffold of deoxyelephantopin may hinder some of its interactions. MCF7 cells were pretreated with various concentrations of deoxyelephantopin for 4 h, harvested, lysed and the lysates were treated with the fluorogenic probe 24c-Cy3 (10 μM; Supplementary Fig. 10). […] Furthermore, cells were pretreated with 20 μM concentration of deoxyelephantopin or 24c and the proteomic profiles were compared (Fig. 6b, Supplementary Fig. 11). Multiple bands were detected that were equally competed by both DEP and 24c, thus again confirming that 24c can be used as an acceptable clickable analogue of deoxyelephantopin in pulldown assays. Having established the optimal labelling conditions by SDS–PAGE, we next carried out a mass spectrometry-based competitive profiling assay[42] coupled with the method of stable isotope labelling of amino acids in culture (SILAC)[43]. […]
visualization were performed as described above. Images were quantified with ImageJ and kinetics values were calculated using GraphPad Prism (V6.03). […]

T1 sequence (O95881 27-172): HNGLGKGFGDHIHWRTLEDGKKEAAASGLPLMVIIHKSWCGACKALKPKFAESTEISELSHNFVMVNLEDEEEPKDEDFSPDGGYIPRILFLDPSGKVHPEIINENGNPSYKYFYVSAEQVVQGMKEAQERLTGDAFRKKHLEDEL

As for `C=C(C)C(=O)O[C@H]1CC2=C[C@@H](C/C(C)=C/[C@H]3OC(=O)C(=C)[C@H]13)OC2=O` [deoxyelephantopin], the “SILAC ratio 20 µM Deoxyelephantopin/DMSO with 24c” value is on record as 0.12.

These data come from article PMC4992173, “Divergent synthesis and identification of the cellular targets of deoxyelephantopins” (Nature Communications, 2016).
